The target in assay [1] is T1, GST-tagged KRAS-G12D (2-169) (Homo sapiens, UniProt P01116, G12D).
T1 construct: GST-tagged KRAS-G12D (2-169, Reaction Biology, MSC-11-539); purchased Reaction Biology MSC-11-539 (KRAS G12D); MSC-11-502 (SOS1cat)
Kind of assay: Nucleotide exchange assay (NEA), SOS-mediated, HTRF, KRAS G12D. It counts as biochemical. Conditions: IC50 extracted at 30 min. Summed up:
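GST-KRAS-G12D (2-169, 5 nM final) with Tb-anti-GST donor was preincubated with compound 1 h at RT (pH 7.3 HEPES buffer, MgCl2, DTT), then SOScat (564-1049, 20 nM) and GTP-DY-647P1 (150 nM) were added. HTRF was read at RT; % inhibition vs DMSO/no-SOS blank, 4-parameter IC50 taken at 30 min.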

The target of assay [2] is T2, KRAS G12D/RAF1 (Homo sapiens, UniProt P01116, G12D).
T2 construct: His6-MBP (N, cleaved yes); made in house; host or cells: E. coli
T2 sequence (P01116 with tags, fused parts or gaps isoform P01116-2 G12D): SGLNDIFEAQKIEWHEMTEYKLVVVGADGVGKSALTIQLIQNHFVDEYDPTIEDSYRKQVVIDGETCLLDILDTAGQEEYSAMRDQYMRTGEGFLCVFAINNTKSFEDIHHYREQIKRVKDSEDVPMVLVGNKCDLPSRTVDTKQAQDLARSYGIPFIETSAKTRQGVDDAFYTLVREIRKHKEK
Briefly: Protein-protein interaction (PPI) HTRF assay KRAS G12D/RAF1. It counts as binding. Summed up:
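Biotinylated human KRAS (1-169; wt, G12D, G12V) or wt NRAS, GppNHp-loaded, pre-incubated 30 min RT with compound and streptavidin-d2, then His-RAF1 RBD (52-131) with anti-6His Tb cryptate added for 1 h RT. HTRF 665/615 ratio normalized to no compound (0%) and untagged RAF1 (100%); IC50.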

T1 sequence (P01116 2-169 isoform P01116-2 G12D): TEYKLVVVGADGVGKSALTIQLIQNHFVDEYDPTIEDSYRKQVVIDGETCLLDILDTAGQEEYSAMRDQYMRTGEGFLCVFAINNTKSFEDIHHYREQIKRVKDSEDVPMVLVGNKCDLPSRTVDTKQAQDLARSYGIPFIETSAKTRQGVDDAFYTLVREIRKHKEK

For `CN(C)C(=O)c1nn2c(c1Cl)CN(c1nc(OC[C@@]34CCCN3C[C@H](F)C4)nc(N3CC4(CCc5sc6[nH]cnc(=O)c6c54)C3)c1C#N)CCC2` [Compound 44, 3-chloro-5-[5-cyano-2-[[(2R,8S)-2-fluoro-1,2,3,5,6,7-hexahydropyrrolizin-8-yl]methoxy]-6-(12-oxospiro[7-thia-9,11-diazatricyclo[6.4.0.02,6]dodeca-1(8), 2(6), 10-triene-3,3′-azetidine]-1′-yl)pyrimidin-4-yl]-N,N-dimethyl-4,6,7,8-tetrahydropyrazolo[1,5-a][1,4]diazepine-2-carboxamide], the 50% inhibitory concentration (IC50) in assay [1] (Table 4) is 1000 to 20000 nM; in assay [2] (Table 4), above 100000 nM.
In the case of `N#Cc1c(N2C[C@H]3CC[C@@H](C2)N3)nc(OCC2(CN3CCOCC3)COC2)nc1N1CC2(CCc3sc(N)c(C#N)c32)C1` [Compound 64, 2-amino-1′-[5-cyano-2-[[3-(morpholinomethyl)oxetan-3-yl]methoxy]-6-[(1R,5S)-3,8-diazabicyclo[3.2.1]octan-3-yl]pyrimidin-4-yl]spiro[5,6-dihydrocyclopenta[b]thiophene-4,3′-azetidine]-3-carbonitrile], the half-inhibitory concentration (IC50) in assay [1] (Table 4) is below 10 nM; in assay [2] (Table 4) it was 1000 to 10000 nM.
Regarding `N#Cc1c(N2C[C@H]3CC[C@@H](C2)N3)nc(OCC2(CN3CCC(F)(F)C3)CC2)nc1N1CC2(CCc3sc(N)c(C#N)c32)C1` [Compound 58, 2-amino-1′-[5-cyano-6-[(1R,5S)-3,8-diazabicyclo[3.2.1]octan-3-yl]-2-[[1-[(3,3-difluoropyrrolidin-1-yl)methyl]cyclopropyl]methoxy]pyrimidin-4-yl]spiro[5,6-dihydrocyclopenta[b]thiophene-4,3′-azetidine]-3-carbonitrile], the IC50 in assay [1] (Table 4) was below 10 nM; in assay [2] (Table 4), 1000 to 10000 nM.
For `N#Cc1c(N2C[C@H]3CC[C@@H](C2)N3)nc(OCC2(CN3C[C@@H](F)[C@@H](F)C3)CC2)nc1N1CC2(CCc3sc(N)c(C#N)c32)C1` [Compound 78, 2-amino-1′-[5-cyano-6-[(1R,5S)-3,8-diazabicyclo[3.2.1]octan-3-yl]-2-[[1-[[(3S,4R)-3,4-difluoropyrrolidin-1-yl]methyl]cyclopropyl]methoxy]pyrimidin-4-yl]spiro[5,6-dihydrocyclopenta[b]thiophene-4,3′-azetidine]-3-carbonitrile] the same measures were 10 to 100 nM and above 100000 nM.
On to `N#Cc1c(N2C[C@H]3CC[C@@H](C2)N3)nc(OCc2cn[nH]n2)nc1N1CC2(CCc3sc(N)c(C#N)c32)C1` [Compound 103, 2-amino-1′-[5-cyano-6-[(1R,5S)-3,8-diazabicyclo[3.2.1]octan-3-yl]-2-(2H-triazol-4-ylmethoxy)pyrimidin-4-yl]spiro[5,6-dihydrocyclopenta[b]thiophene-4,3′-azetidine]-3-carbonitrile], for which the results for the IC50 in assay [1] (Table 4) and in assay [2] (Table 4) were 10 to 100 nM and 10000 to 100000 nM, respectively.
With `CC1Cn2nncc2CN1c1nc(OC[C@@]23CCCN2C[C@H](F)C3)nc(N2CC3(CCc4sc(N)c(C#N)c43)C2)c1C#N` (stereo partly drawn) [Compound 67, 2-amino-1′-[5-cyano-6-(6-methyl-6,7-dihydro-4H-triazolo[1,5-a]pyrazin-5-yl)-2-[[(2R,8S)-2-fluoro-1,2,3,5,6,7-hexahydropyrrolizin-8-yl]methoxy]pyrimidin-4-yl]spiro[5,6-dihydrocyclopenta[b]thiophene-4,3′-azetidine]-3-carbonitrile], the values for the IC50 in assay [1] (Table 4) and in assay [2] (Table 4) were 100 to 1000 nM and 10000 to 100000 nM, respectively.
On to `CN(C)C(=O)c1nn2c(c1Cl)CN(c1nc(OC[C@@]34CCCN3C[C@H](F)C4)nc(N3CC4(C3)C(=O)CCc3ccccc34)c1C#N)CCC2` [Compound 36, 3-chloro-5-[5-cyano-2-[[(2R,8S)-2-fluoro-1,2,3,5,6,7-hexahydropyrrolizin-8-yl]methoxy]-6-(2′-oxospiro[azetidine-3,1′-tetralin]-1-yl)pyrimidin-4-yl]-N,N-dimethyl-4,6,7,8-tetrahydropyrazolo[1,5-a][1,4]diazepine-2-carboxamide], for which the IC50 in assay [1] (Table 4) is 1000 to 20000 nM; in assay [2] (Table 4), above 100000 nM.
Consider `N#Cc1c(N2C[C@H]3CC[C@@H](C2)N3)nc(OCC2(CN3CCOCC3)CC2)nc1N1CC2(C1)c1ccccc1CCC2O` (stereo partly drawn) [Compound 53, 4-[(1R,5S)-3,8-diazabicyclo[3.2.1]octan-3-yl]-6-(2′-hydroxyspiro[azetidine-3,1′-tetralin]-1-yl)-2-[[1-(morpholinomethyl)cyclopropyl]methoxy]pyrimidine-5-carbonitrile], for which the IC50 in assay [1] (Table 4) was 100 to 1000 nM; in assay [2] (Table 4) it was above 100000 nM.
In the case of `Oc1ccc2c(c1)-c1ccccc1C21CN(c2cc(N3C[C@H]4CC[C@@H](C3)N4)nc(OC[C@@]34CCCN3C[C@H](F)C4)n2)C1` [Compound 1, 1-[6-[(1R,5S)-3,8-diazabicyclo[3.2.1]octan-3-yl]-2-[[(2R,8S)-2-fluoro-1,2,3,5,6,7-hexahydropyrrolizin-8-yl]methoxy]pyrimidin-4-yl]spiro[azetidine-3,9′-fluorene]-3′-ol], the 50% inhibitory concentration (IC50) in assay [1] (Table 2) fell in the range of 100 to 1000 nM; in assay [1] (Table 4), 100 to 1000 nM; in assay [2] (Table 2), 10000 to 100000 nM; in assay [2] (Table 4), 10000 to 100000 nM.
`N#Cc1cnc(OCC2(CN3CCOCC3)CC2)nc1N1CC2(CCc3sc(N)c(C#N)c32)C1` [Compound 66, 2-amino-1′-[5-cyano-2-[[1-(morpholinomethyl)cyclopropyl]methoxy]pyrimidin-4-yl]spiro[5,6-dihydrocyclopenta[b]thiophene-4,3′-azetidine]-3-carbonitrile]: the IC50 in assay [1] (Table 4) was 100 to 1000 nM; in assay [2] (Table 4), 10000 to 100000 nM.
In the case of `C[C@@]1(O)CCCN(c2nc(OC[C@@]34CCCN3C[C@H](F)C4)nc(N3CC4(CCc5sc(N)c(C#N)c54)C3)c2F)C1` [Compound 6, 2-amino-1′-[5-fluoro-2-[[(2R,8S)-2-fluoro-1,2,3,5,6,7-hexahydropyrrolizin-8-yl]methoxy]-6-[(3R)-3-hydroxy-3-methyl-1-piperidyl]pyrimidin-4-yl]spiro[5,6-dihydrocyclopenta[b]thiophene-4,3′-azetidine]-3-carbonitrile], the values for the IC50 in assay [1] (Table 4) and in assay [2] (Table 4) were 100 to 1000 nM and 10000 to 100000 nM, respectively.
For `N#Cc1c(N2C[C@H]3CC[C@@H](C2)N3)nc(OCC2(CN3CCS(=O)(=O)CC3)CC2)nc1N1CC2(CCc3sc(N)c(C#N)c32)C1` [Compound 95, 2-amino-1′-[5-cyano-6-[(1R,5S)-3,8-diazabicyclo[3.2.1]octan-3-yl]-2-[[1-[(1,1-dioxo-1,4-thiazinan-4-yl)methyl]cyclopropyl]methoxy]pyrimidin-4-yl]spiro[5,6-dihydrocyclopenta[b]thiophene-4,3′-azetidine]-3-carbonitrile] the same measures were below 10 nM and 1000 to 10000 nM.
On to `N#Cc1c(N2CCC=CCC2)nc(OC[C@@]23CCCN2C[C@H](F)C3)nc1N1CC2(CCc3sc(N)c(C#N)c32)C1` [Compound 31, 2-amino-1′-[5-cyano-2-[[(2R,8S)-2-fluoro-1,2,3,5,6,7-hexahydropyrrolizin-8-yl]methoxy]-6-(2,3,6,7-tetrahydroazepin-1-yl)pyrimidin-4-yl]spiro[5,6-dihydrocyclopenta[b]thiophene-4,3′-azetidine]-3-carbonitrile], for which the 50% inhibitory concentration (IC50) in assay [1] (Table 4) was 10 to 100 nM; in assay [2] (Table 4), 1000 to 10000 nM.
As to `N#Cc1c(N2C[C@H]3CC[C@@H](C2)N3)nc(OCC2(CN3CCOCC3)CC2)nc1N1CC2(C1)C(=O)CCc1ccccc12` [Compound 50, 4-[(1R,5S)-3,8-diazabicyclo[3.2.1]octan-3-yl]-2-[[1-(morpholinomethyl)cyclopropyl]methoxy]-6-(2′-oxospiro[azetidine-3,1′-tetralin]-1-yl)pyrimidine-5-carbonitrile], the results for the concentration for half-maximal inhibition (IC50) in assay [1] (Table 4) and in assay [2] (Table 4) were 1000 to 20000 nM and above 100000 nM, respectively.
Consider `CO/N=C1/CCCN(c2nc(OC[C@@]34CCCN3C[C@H](F)C4)nc(N3CC4(CCc5sc(N)c(C#N)c54)C3)c2C#N)CC1` [Compound 59, 2-amino-1′-[5-cyano-2-[[(2R,8S)-2-fluoro-1,2,3,5,6,7-hexahydropyrrolizin-8-yl]methoxy]-6-[(4Z)-4-methoxyiminoazepan-1-yl]pyrimidin-4-yl]spiro[5,6-dihydrocyclopenta[b]thiophene-4,3′-azetidine]-3-carbonitrile], for which the IC50 in assay [1] (Table 4) fell in the range of 100 to 1000 nM; in assay [2] (Table 4) it was 10000 to 100000 nM.

Source of the values: US12145947B2, “Pyrimidine based modulators and uses thereof” (Quanta Therapeutics, Inc., priority 2022, dated 2024).
